The series is described as follows: Storage coloration test of Elobixibat, additive and their mixtures (visual observation). The format is physicochemical. The text has this: 1,1-dioxo-3,3-dibutyl-5-phenyl-7-methylthio-8-(N—{(R)-1′-phenyl-1′-[N′-(carboxymethyl)carbamoyl]methyl}carbamoylmethoxy)-2,3,4,5-tetrahydro-1,5-benzothiazepine (Elobixibat) and an additive shown in Table 1 were mixed so that they have a volume ratio of 1:1 based on visual quantities, and thereby, the mixtures according to Reference Examples 3 to 9 were obtained. […] The mixture of each of Reference Examples 3 to 9, only Elobixibat as Reference Example 1, and only Macrogol (polyethylene glycol) 6000 as Reference Example 2 were independently stored in an aluminum bag as an airtight container for 2 weeks under the conditions of 60° C. and 75% relative humidity. After storage, the presence or absence of coloration of the materials of Reference Examples 1 and 2 and the mixtures according to Reference Examples 3 to 9 was visually observed.

Structures are written as SMILES.

In the case of `CCCCC1(CCCC)CN(c2ccccc2)c2cc(SC)c(OCC(=O)N[C@@H](C(=O)NCC(=O)O)c3ccccc3)cc2S(=O)(=O)C1` [Reference Example 1, 1,1-dioxo-3,3-dibutyl-5-phenyl-7-methylthio-8-(N—{(R)-1′-phenyl-1′-[N′-(carboxymethyl)carbamoyl]methyl}carbamoylmethoxy)-2,3,4,5-tetrahydro-1,5-benzothiazepine], the “Coloration after storage: Before storage → after storage” value (colour before and after 2 weeks at 60° C. and 75% relative humidity in aluminum bag) is reported as “white → white”. For the setting “stored in aluminum bag (airtight container) for 2 weeks at 60° C. and 75% relative humidity, visually observed”, the Coloration after storage entry is given as “Not observed”.

Source of the values: patent US11844822B2, “Solid formulation and method for preventing or reducing coloration thereof” (Elobix AB, priority 2014, dated 2023).
